The values below come from patent US5198433A, “Lactamimides as calcium antagonists” (Merrell Dow Pharmaceuticals Inc., priority 1992, dated 1993).

The subject of assay [1] is calcium ion-channel protein. The settings on record: [^3 H]nitrendipine as the ligand; cited from earlier work.
The target of assay [2] is [^3 H]d-cis-diltiazem binding to rat whole brain membranes (calcium ion-channel protein). As to the kind of experiment: [^3 H]d-cis-Diltiazem binding assay (displacement from rat whole brain membranes). Set-up: species or system rat (male Sprague-Dawley). The settings on record: for pKi: Table 1, displacement of 3H diltiazem, rat brain membranes, n = 3, Cheng & Prusoff; for IC50: ligand […]. Here is the method: The whole brain from male Sprague-Dawley rats (200-300 g) was dissected and homogenized in cold 50 mM Tris-HCl buffer (pH 7.4) for 2 x 30 second periods by Polytron (Brinkmann, setting No. 5). The homogenate was washed 2 times (48,000 ×g for 10 minutes, 4° C.) with intermittent resuspension of the pellet in fresh buffer. The final pellet was resuspended to an original tissue concentration of 100 mg/ml in Tris-HCl buffer. […] The reaction was terminated by rapid filtration under a vacuum through 0.05% polyethylenimine-pretreated Whatman GF/B glass fiber filters. Filters were immediately washed 2 times with 4 ml of cold Tris-HCl buffer. Pretreatment of the filters with 0.05% polyethylenimine served to eliminate [^3 H]d-cis-diltiazem binding to the filter. The filters were dried and the radioactivity in the filters was extracted overnight in scintillation fluid.
On the technique in general: Displacement assays read how much labelled ligand stays bound in the presence of the test substance.

The target of assay [3] is T1, K^+ -depolarized guinea pig ileum or taenia (Cavia porcellus).
T1 construct: pieces of ileum, 2 cm in length, from male guinea pigs (200-400 g) were set up in isolated organ baths; from tissue; host or cells: strips of taenia from the caecum or pieces of ileum of male guinea pigs
As to the kind of experiment: Antagonism of Ca^++ -induced contractions of K^+ -depolarized guinea pig taenia or ileum. The class given is cell-based. Particulars: for pA2: Table 1, guinea pig ileum or taenia, K^+ -depolarized, Ca^++ -induced contraction, Arunlakshana & Schild; for mean slope (±S.D.) of Schild plot / mean pA2 value (95% confidence interval), Schild plot: FIG. 6, 40 mM K^+ -depolarized guinea pig ileum. Here is the method:
Strips of taenia from the caecum or pieces of ileum, 2 cm in length, from male guinea pigs (200-400 g) were set up in isolated organ baths in Ca^++ -free K^+ Tyrode's solution (mM NaCl 137, KCl 40, NaH2 PO4 0.4, NaHCO3 11.9, glucose 5.5) and gassed with 95% O2, 5% CO2 at 37° C. Contractions were measured with isotonic transducers with a 1 g load. Cumulative dose-response curves were obtained. Tissues were then washed and incubated with the compounds for 20-25 minutes and then Ca^++ concentration response curves re-established. […] Dose ratios were determined graphically at ED50 values from the Ca^++ dose-response curve and Schild plots were constructed to determine pA2 value using inverse regression line analysis. Alternatively, when only one concentration of an antagonist was used, pA2 values were calculated according to the method of J. M. Van Rossum, Arch. Int. Pharmacodyn Ther. 143: 299-330 (1963).

Assay [4] concerns the target T2, [^3 H]nitrendipine binding to rat heart membranes (calcium ion-channel protein) (Rattus norvegicus, UniProt P22002).
T2 construct: Membranes were prepared from the hearts of male Sprague-Dawley rats; from tissue; host or cells: heart membranes of male Sprague-Dawley rats
Briefly: [^3 H]Nitrendipine binding assay (enhancement of binding to rat heart membranes). Set-up: species or system rat (male Sprague-Dawley). The settings on record: ligand 0.1 nM, mean ± SEM; for activity at 1 µM: 10^-6 M; for activity at 0.1 µM: 10^-7 M. As for the experimental part:
Membranes were prepared from the hearts of male Sprague-Dawley rats and [^3 H]nitrendipine binding was conducted as described in detail by H. R. Lee, et al., J. Pharmacol Exp. Ther. 233:611-616, (1985), as modified by F. J. Ehlert, et al., Biochem. Biophys. Rec. Common. 104:937-943, (1982). The ability of compounds tested at 10^-6 and 10^-7 M to enhance [^3 H]nitredepine binding was taken as indicative of diltiazem-like calcium antagonistic properties.
Values are the mean ± SEM of single experiments run in triplicate at
the concentrations of drugs indicated. Ligand concentration was 0.1 nM an
control specific binding was 49.6 ± 1.7 fmol/mg protein.

T1 sequence (O35505 whole entry): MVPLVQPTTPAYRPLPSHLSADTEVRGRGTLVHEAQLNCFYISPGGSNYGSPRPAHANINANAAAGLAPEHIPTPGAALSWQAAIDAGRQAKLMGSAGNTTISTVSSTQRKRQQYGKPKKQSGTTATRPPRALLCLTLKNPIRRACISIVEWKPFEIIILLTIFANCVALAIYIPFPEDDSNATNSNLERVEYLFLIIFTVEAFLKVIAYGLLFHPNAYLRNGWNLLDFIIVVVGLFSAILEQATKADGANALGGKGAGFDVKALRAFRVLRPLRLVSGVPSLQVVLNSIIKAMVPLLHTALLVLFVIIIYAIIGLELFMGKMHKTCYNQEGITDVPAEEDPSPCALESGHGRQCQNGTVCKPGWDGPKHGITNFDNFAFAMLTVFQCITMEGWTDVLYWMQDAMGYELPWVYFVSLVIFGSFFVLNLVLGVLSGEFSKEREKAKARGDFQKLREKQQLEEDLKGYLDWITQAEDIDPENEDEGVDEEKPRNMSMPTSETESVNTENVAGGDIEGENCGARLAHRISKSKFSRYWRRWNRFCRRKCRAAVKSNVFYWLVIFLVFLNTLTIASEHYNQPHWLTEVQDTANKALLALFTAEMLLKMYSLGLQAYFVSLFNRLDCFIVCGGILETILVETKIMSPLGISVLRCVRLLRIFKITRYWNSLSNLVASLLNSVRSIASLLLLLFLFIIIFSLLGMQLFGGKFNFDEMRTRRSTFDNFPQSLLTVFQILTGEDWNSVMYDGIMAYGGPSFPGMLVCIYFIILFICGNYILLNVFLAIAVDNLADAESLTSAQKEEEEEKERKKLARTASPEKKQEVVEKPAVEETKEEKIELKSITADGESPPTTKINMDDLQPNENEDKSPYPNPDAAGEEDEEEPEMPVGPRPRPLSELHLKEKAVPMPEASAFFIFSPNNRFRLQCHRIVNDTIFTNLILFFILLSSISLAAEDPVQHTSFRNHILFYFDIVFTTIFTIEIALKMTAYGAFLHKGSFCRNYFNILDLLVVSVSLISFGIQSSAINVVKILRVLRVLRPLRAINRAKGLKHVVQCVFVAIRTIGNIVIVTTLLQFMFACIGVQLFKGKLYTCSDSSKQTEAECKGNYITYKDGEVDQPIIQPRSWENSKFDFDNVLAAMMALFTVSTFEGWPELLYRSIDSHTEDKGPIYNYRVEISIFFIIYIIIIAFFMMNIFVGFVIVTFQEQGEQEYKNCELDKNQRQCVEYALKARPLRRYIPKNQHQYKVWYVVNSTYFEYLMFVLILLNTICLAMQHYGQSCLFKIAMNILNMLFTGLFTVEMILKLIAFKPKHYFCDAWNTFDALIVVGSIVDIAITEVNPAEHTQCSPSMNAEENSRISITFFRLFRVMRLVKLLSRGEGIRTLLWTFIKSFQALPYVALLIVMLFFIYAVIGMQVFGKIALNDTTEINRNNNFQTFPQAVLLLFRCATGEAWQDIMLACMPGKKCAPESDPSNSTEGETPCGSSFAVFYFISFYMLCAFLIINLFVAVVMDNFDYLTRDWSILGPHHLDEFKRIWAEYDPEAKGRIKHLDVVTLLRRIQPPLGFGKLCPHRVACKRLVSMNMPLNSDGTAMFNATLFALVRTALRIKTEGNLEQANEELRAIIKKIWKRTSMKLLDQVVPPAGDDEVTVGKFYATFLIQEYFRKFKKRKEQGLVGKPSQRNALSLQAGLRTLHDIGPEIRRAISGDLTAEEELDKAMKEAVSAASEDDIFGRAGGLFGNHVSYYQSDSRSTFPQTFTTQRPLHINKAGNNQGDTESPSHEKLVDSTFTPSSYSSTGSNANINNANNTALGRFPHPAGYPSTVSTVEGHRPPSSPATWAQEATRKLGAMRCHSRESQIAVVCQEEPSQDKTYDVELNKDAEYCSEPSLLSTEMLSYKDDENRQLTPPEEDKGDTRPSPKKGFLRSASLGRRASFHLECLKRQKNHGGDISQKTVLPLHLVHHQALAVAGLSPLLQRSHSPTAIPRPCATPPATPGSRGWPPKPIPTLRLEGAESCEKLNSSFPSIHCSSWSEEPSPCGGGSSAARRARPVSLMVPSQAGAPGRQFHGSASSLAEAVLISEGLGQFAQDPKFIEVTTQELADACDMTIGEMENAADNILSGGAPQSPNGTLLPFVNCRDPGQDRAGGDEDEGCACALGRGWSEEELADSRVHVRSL

Regarding `COc1ccc(CCN(C)CCCC(C#N)(c2ccc(OC)c(OC)c2)C(C)C)cc1OC` (stereo not shown) [verapamil], in assay [1], the “effect on [^3 H]nitrendipine binding” value was “displaces [^3 H]nitrendipine in a non-competitive manner”.

`c1ccc(C(N=C2CCCCCCN2)C23CC4CC(CC(C4)C2)C3)cc1` (stereo not drawn) [Test Compound 8, 2-[[α-(1-adamantanyl)benzyl]imino]octahydroazocine]: the pKi (usually the negative decadic logarithm of the Ki, by convention in mol/L) in assay [2] (25° C.) is 6.72. Also, the pA2 – broadly, the negative logarithm of the molar antagonist concentration that doubles the agonist concentration needed for the same response – in assay [3] is given as 6.63.

`CCCC(CN=C1CCCCCN1)(c1ccccc1)c1ccccc1` [Test Compound 22, hexahydro-2-[(2,2-diphenylpentyl)imino]azepine]: the pA2 in assay [3] (listed as 22) is reported as 6.31.

Regarding `CCCCOc1ccc(C(N=C2CCCCCN2)c2ccccc2)cc1` (stereo not drawn) [Test Compound 9, 2-[(p-butoxy-α-phenylbenzyl)imino]hexahydroazepine], the negative-log Ki (pKi) in assay [2] (25° C.) was 6.17. In addition, the pA2 in assay [3] is listed as 5.86.

Consider `c1ccc([C@H]2CCC[C@H]2N=C2CCCCCCCN2)cc1` (relative stereo) [Test Compound 14, octahydro-2-[(cis-2-phenylcyclopentyl)imino]azonine], for which the pKi in assay [2] (25° C.) turned out to be 5.26. The molecule further had a pA2 in assay [3] of 4.84.

Regarding `COc1ccc([C@@H]2Sc3ccccc3N(CCN(C)C)C(=O)[C@@H]2OC(C)=O)cc1` [Test Compound 17, (1)-cis-5-2-(dimethylamino)etnyl]2,3-dihydro-3-hydroxy-2-(p-methoxyphenyl)-1,5-benzothiazepin-4(5H)-one acetate, reference compound], in assay [4] (25° C.), the activity at 1 µM came out at 83 ± 8% and the activity at 0.1 µM stood at 96 ± 5%. Moreover, in assay [4] (37° C.), the activity at 1 µM stood at 262 ± 10% and the activity at 0.1 µM was 218 ± 4%. For the same molecule, in assay [3], the “mean slope (±S.D.) of Schild plot” value was 1.00 (0.15). Besides, the “effect on [^3 H]nitrendipine binding” value in assay [1] was “enhances binding”.

Take `Clc1ccc(C(N=C2CCCCCN2)c2ccc(Cl)cc2)cc1` [Test Compound 10, 2-[(p-chloro-α-[p-chlorophenyl]benzyl)imino]hexahydroazepine]: the pKi in assay [2] (25° C.) is on record as 6.08. Further, the pA2 in assay [3] stood at 6.33.

As to `CCCC(CN=C1CCCCCN1)(c1ccccc1)c1ccccc1` [Test Compound 6, hexahydro-2-[(2,2-diphenylpentyl)imino]azepine], the pA2 in assay [3] (listed as 6) turned out to be 6.64.

In assay [3], `CC(N=C1CCCCCN1)c1cccc2ccccc12` (single isomer, unassigned; (+)) [Test Compound 25, (+)-hexahydro-N-[1-(1-naphthalenyl)ethyl]2H-azepin-2-imine] had a pA2 of 5.47.

The molecule `CCCC(CN=C1CCCCN1)(c1ccccc1)c1ccccc1` [Test Compound 7, 2-[(2,2-diphenylpentyl)imino]piperidine] registered a pA2 in assay [3] (listed as 7) of 6.15.

Take `C1CCNC(=NC2C3CC4CC(C3)CC2C4)CC1` (stereo not shown) [Test Compound 13, 2-(2-adamantanylimino)hexahydroazepine]: in assay [2] (25° C.), the pKi is recorded as 4.70. Besides, in assay [3], the pA2 is on record as 5.47.

In the case of `c1ccc([C@@H]2CCC[C@@H]2N=C2CCCN2)cc1` (relative stereo) [Test Compound 16], in assay [2] (25° C.), the pKi was 4.96.

With `C1CCNC(=N[C@@H]2CCC[C@@H]2C2CCCCC2)CC1` (relative stereo) [Test Compound 12, 2-[(cis-2-cyclohexylcyclopentyl)imino]hexahydroazepine], in assay [2] (25° C.), the pKi is on record as 5.54. Besides, in assay [3], the pA2 is 5.54.

Regarding `COc1cc(CN=C2NCCC2=Cc2ccc(C)cc2)ccc1O` [Test Compound 19, 2-methoxy-4-[[[3-[(4-methylphenyl)methylene]-2-pyrrolidinyliden]amino]methyl]phenol], the results for the IC50 in assay [2] (25° C.) and in assay [2] (37° C.) were 1.26 ± 0.09 µM and 1.9 ± 0.23 µM, respectively.

In the case of `c1ccc(C(CN=C2CCCCCN2)c2ccccc2)cc1` [Test Compound 21, hexahydro-2-(2,2-diphenylethylimino)azepine], the pA2 in assay [3] amounted to 6.14.

Turning to `CCCC(CN=C1CCCCCCCCCCCN1)(c1ccccc1)c1ccccc1` [Test Compound 1, N-(2,2-diphenylpentyl)azacyclotridecan-2-imine], the pKi in assay [2] (25° C.) was 6.49. In addition, in assay [4] (25° C.), the activity at 1 µM amounted to 123 ± 6% and the activity at 0.1 µM came to 119 ± 6%. In assay [4] (37° C.), the activity at 1 µM turned out to be 224 ± 14% and the activity at 0.1 µM was 252 ± 13%. Besides, in assay [3], the “mean pA2 value (95% confidence interval), Schild plot” value is recorded as 7.27 (6.95-8.12) and the “mean slope (±S.D.) of Schild plot” value was 0.94 (0.21).

For the molecule `c1ccc(C(CCN=C2CCCCCN2)c2ccccc2)cc1` [Test Compound 20, hexahydro-2-[3,3-diphenylpropylimino)azepine], the pA2 in assay [3] amounted to 6.19.

Turning to `FC(F)(F)c1cccc(C(N=C2CCCCCN2)c2ccccc2)c1` (stereo not shown) [Test Compound 11, hexahydro-N-[phenyl[3-(trifluoromethyl)phenyl]methyl]-2H-azepin-2-imine], in assay [2] (25° C.), the pKi is 5.92. The same molecule had a pA2 in assay [3] of 5.60.

On to `CCCC(CN=C1CCCCN1)(c1ccccc1)c1ccccc1` [Test Compound 23, 2-[(2,2-diphenylpentyl)imino]piperidine], for which the pA2 in assay [3] (listed as 23) is 6.04.

With `c1ccc([C@H]2CCC[C@H]2N=C2CCCCCN2)cc1` (relative stereo) [Test Compound 15, hexahydro-2-[(cis-2-phenylcyclopentyl)imino]azepine], the pKi in assay [2] (25° C.) was determined as 4.16.

`CC(N=C1CCCCCN1)c1cccc2ccccc12` (single isomer, unassigned; (-)) [Test Compound 26, (-)-hexahydro-N-[1-(1-naphthalenyl)ethyl]2H-azepin-2-imine] yielded a pA2 in assay [3] of 5.18.

For `C1CCCCCNC(=NC2CC3CCC2C3)CCCCC1` (stereo not shown) [Test Compound 4, 2-(2-norbornylimino)azacyclotridecane], the pKi in assay [2] (25° C.) is 5.92. For the same molecule, in assay [4] (25° C.), the activity at 1 µM worked out at 106 ± 4% and the activity at 0.1 µM was 105 ± 4%. Moreover, in assay [4] (37° C.), the activity at 1 µM stood at 116 ± 8% and the activity at 0.1 µM was 108 ± 7%. Moreover, in assay [3], the pA2 was 6.07.

For `c1ccc(-c2ccccc2N=C2CCCCCCCCCCCN2)cc1` [Test Compound 2, 2-(o-biphenylylimino)azacyclotridecane], in assay [4] (25° C.), the activity at 1 µM turned out to be 123 ± 10% and the activity at 0.1 µM was 117 ± 7%. In assay [4] (37° C.), the activity at 1 µM is 152 ± 15% and the activity at 0.1 µM was 152 ± 9%. In assay [3], the “mean pA2 value (95% confidence interval), Schild plot” value was 6.59 (6.33-7.17).

Consider `CCCC(CN=C1CCCCCCN1)(c1ccccc1)c1ccccc1` [Test Compound 24, 2-[(2,2-diphenylpentyl)imino]octahydroazocine], for which the pA2 in assay [3] (listed as 24) is 6.63.

With `CCCC(CN=C1CCCCCCN1)(c1ccccc1)c1ccccc1` [Test Compound 5, 2-[(2,2-diphenylpentyl)imino]octahydroazocine], in assay [4] (37° C.), the activity at 1 µM worked out at 122 ± 3% and the activity at 0.1 µM stood at 111 ± 9%. The same molecule registered a pA2 in assay [3] (listed as 5) of 6.60.
